Data published in patent US9533985B2, “Sulfonamide derivative and medicinal use thereof” (EA Pharma Co., Ltd., priority 2012, dated 2017).

Tests used:
Format in all cases: cell-based
α4β1 integrin = α4β1 integrin (Homo sapiens (Human), UniProt P05556+P13612); test: VCAM-1/α4β1 integrin binding inhibitory activity evaluation test (Jurkat cell adhesion to VCAM-1/Fc); conditions: Jurkat cells binding to recombinant human VCAM-1/Fc
Summary of the method: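 Jurkat cells (5×10^5/well) added with compounds to plates coated with recombinant human VCAM-1/Fc (1 μg/mL coating), in DMEM binding buffer with 40 mM HEPES, 0.2% BSA and 4 mM MnCl2, 15-60 min at 30° C. Bound cells lysed and quantified by LDH absorbance at 490 nm; IC50 relative to compound-free wells, in duplicate.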

α4β7 integrin [1] = target: T1, α4β7 integrin (Homo sapiens (Human), UniProt P13612+P26010); test: MAdCAM-1/α4β7 integrin binding inhibitory activity evaluation test (RPMI-8866 cell adhesion to MAdCAM-1/Fc); conditions: for Selectivity: IC50 in VCAM-1/α4β1 test divided by IC50 in MAdCAM-1/α4β7 test; for IC50: RPMI-8866 cells binding to recombinant mouse MAdCAM-1/Fc, no serum
T1 sequence (P13612 34-1032): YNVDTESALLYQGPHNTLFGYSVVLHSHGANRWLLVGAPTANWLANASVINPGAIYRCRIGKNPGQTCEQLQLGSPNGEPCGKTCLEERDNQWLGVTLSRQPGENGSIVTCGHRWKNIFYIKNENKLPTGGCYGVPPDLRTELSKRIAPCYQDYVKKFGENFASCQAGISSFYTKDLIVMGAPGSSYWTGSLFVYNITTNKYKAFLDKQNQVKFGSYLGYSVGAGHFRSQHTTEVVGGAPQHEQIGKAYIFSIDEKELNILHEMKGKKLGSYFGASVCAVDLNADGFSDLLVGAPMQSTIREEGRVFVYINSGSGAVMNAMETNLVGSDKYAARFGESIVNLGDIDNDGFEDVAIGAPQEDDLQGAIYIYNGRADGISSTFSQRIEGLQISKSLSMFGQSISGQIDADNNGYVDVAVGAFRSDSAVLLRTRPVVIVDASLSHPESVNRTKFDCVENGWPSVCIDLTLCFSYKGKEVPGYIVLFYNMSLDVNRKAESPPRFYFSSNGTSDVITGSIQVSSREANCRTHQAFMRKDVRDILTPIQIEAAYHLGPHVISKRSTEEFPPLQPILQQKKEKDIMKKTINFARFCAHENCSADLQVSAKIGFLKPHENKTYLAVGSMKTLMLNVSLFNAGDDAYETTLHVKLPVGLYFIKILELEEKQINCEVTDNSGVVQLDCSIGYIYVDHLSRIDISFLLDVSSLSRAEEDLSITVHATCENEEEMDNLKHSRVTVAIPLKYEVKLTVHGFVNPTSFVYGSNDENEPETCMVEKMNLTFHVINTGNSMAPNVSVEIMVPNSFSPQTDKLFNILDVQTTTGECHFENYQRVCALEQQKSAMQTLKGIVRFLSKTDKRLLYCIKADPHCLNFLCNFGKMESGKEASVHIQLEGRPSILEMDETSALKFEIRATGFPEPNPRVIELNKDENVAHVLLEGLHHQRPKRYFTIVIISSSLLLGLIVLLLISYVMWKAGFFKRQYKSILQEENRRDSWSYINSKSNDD
T1 sequence (P26010 20-798): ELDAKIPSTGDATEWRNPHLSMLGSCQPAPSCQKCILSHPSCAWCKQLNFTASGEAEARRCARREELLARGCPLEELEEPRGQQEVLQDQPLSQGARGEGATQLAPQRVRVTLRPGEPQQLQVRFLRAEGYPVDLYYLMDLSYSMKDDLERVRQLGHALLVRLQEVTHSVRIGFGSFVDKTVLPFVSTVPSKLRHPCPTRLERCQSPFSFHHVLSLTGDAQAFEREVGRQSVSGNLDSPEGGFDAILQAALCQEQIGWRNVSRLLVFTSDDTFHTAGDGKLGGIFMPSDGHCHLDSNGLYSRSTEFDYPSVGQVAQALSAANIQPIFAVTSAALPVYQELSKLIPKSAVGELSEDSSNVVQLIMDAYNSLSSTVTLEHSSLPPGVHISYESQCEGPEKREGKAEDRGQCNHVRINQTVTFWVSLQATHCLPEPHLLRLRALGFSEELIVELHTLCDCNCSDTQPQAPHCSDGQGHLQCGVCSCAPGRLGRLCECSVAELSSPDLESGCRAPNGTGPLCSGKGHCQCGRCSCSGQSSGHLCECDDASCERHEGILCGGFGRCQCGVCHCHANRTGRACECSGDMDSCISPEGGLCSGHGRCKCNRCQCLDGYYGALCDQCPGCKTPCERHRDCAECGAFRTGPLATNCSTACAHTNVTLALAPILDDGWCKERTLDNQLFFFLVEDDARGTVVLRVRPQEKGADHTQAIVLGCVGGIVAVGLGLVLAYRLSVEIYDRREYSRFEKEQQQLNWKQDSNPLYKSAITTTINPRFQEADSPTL
Summary of the method: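 Human RPMI-8866 cells (α4β7+) adhered for 15–60 min at 30 °C to plates coated with recombinant mouse MAdCAM-1/Fc, in DMEM binding buffer with 4 mM MnCl2 and test compound. Bound cells were quantified via LDH activity (A490) after lysis. IC50 is the 50% inhibition of binding relative to compound-free wells.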

α4β7 integrin [2] = target: T1, α4β7 integrin; test: MAdCAM-1/α4β7 integrin binding inhibitory activity evaluation test in the presence of serum (1); conditions: RPMI-8866 cells binding to mouse MAdCAM-1/Fc, human serum at final concentration of 50%; read-out: α4β7 with serum added, IC50
Summary of the method: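 Plates were coated with recombinant mouse MAdCAM-1/Fc (1 μg/mL, pH 9.6). Human RPMI-8866 B cells (α4β7-expressing) bound for 15–60 min at 30 °C in DMEM/HEPES/BSA with 4 mM MnCl2 and 50% human serum, with test substance present. Bound cells were quantified by LDH absorbance at 490 nm, run in duplicate, and IC50 was calculated relative to no-compound wells.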

α4β1 integrin, sequence (P13612 34-1032): as the sequence (P13612 34-1032) above
α4β1 integrin, sequence (P05556 21-798): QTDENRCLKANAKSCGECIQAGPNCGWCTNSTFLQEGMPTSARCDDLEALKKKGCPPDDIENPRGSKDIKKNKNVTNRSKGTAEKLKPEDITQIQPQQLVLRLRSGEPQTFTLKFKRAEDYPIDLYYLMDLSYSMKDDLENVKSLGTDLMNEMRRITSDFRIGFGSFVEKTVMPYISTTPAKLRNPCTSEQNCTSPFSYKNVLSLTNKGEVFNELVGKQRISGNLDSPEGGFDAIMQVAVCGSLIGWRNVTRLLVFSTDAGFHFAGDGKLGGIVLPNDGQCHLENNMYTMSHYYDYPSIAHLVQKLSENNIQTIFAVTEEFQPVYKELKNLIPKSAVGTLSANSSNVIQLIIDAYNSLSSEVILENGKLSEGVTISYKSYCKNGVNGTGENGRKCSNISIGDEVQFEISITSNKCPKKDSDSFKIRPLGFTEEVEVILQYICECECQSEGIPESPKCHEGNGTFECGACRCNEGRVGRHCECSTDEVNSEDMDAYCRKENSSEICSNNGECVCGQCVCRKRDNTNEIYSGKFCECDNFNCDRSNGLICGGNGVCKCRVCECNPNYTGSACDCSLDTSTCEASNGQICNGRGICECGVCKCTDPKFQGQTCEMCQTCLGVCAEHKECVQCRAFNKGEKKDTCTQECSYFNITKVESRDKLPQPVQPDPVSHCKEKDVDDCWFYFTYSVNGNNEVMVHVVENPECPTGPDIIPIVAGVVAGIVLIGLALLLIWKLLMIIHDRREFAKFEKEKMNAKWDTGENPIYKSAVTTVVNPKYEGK

Row | IC50 (α4β1 integrin) | Selectivity (α4β7 integrin [1]) | IC50 (α4β7 integrin [1]) | IC50 (α4β7 integrin [2]) | SMILES
1 | 1500 nM | 750 | 2 nM | 22 nM | Cn1ccc(=O)n(-c2ccc(C[C@H](NC(=O)c3c(F)cc(NS(=O)(=O)c4ccc(-n5cccc5)cc4)cc3F)C(=O)O)cc2)c1=O [Example 64, N-[2,6-Difluoro-4-({[4-(1H-pyrrol-1-yl)phenyl]sulfonyl}amino)benzoyl]-4-(3-methyl-2,6-dioxo-3,6-dihydropyrimidin-1(2H)-yl)-L-phenylalanine]
2 | 160 nM | 260 | 0.62 nM | 16 nM | CCNC(=O)c1ccc(S(=O)(=O)Nc2cc(F)c(C(=O)N[C@@H](Cc3ccc(-n4c(=O)ccn(C)c4=O)cc3)C(=O)O)c(F)c2)cc1 [Example 44, N-{4-[({4-[(Ethylamino)carbonyl]phenyl}sulfonyl)amino]-2,6-difluorobenzoyl}-4-(3-methyl-2,6-dioxo-3,6-dihydropyrimidin-1(2H)-yl)-L-phenylalanine]
3 | 180 nM | 560 | 0.32 nM | 19 nM | Cc1ccc(-c2ccc(S(=O)(=O)Nc3cc(F)c(C(=O)N[C@@H](Cc4ccc(-n5c(=O)c6ccncc6n(C)c5=O)cc4)C(=O)O)c(F)c3)cc2)cn1 [Example 50, N-[2,6-Difluoro-4-({[4-(6-methylpyridin-3-yl)phenyl]sulfonyl}amino)benzoyl]-4-(1-methyl-2,4-dioxo-1,4-dihydropyrido[3,4-d]pyrimidin-3(2H)-yl)-L-phenylalanine]
4 | 13 nM | 220 | 0.06 nM | 1.5 nM | Cn1c(=O)n(-c2ccc(C[C@H](NC(=O)c3c(F)cc(NS(=O)(=O)c4ccc(-n5cncn5)cn4)cc3F)C(=O)O)cc2)c(=O)c2ccncc21 [Example 57, N-[2,6-Difluoro-4-({[5-(1H-1,2,4-triazol-1-yl)pyridin-2-yl]sulfonyl}amino)benzoyl]-4-(1-methyl-2,4-dioxo-1,4-dihydropyrido[3,4-d]pyrimidin-3(2H)-yl)-L-phenylalanine]
5 | 340 nM | 1100 | 0.32 nM | 20 nM | CN(C)c1ccc2c(c1)c(=O)n(-c1ccc(C[C@H](NC(=O)c3c(F)cc(NS(=O)(=O)c4ccc(-n5cncn5)cc4)cc3F)C(=O)O)cc1)c(=O)n2C [Example 47, N-[2,6-Difluoro-4-({[4-(1H-1,2,4-triazol-1-yl)phenyl]sulfonyl}amino)benzoyl]-4-[6-(dimethylamino)-1-methyl-2,4-dioxo-1,4-dihydroquinazolin-3(2H)-yl]-L-phenylalanine]
6 | 410 nM | 410 | 1 nM | 4.8 nM | Cn1ccc(=O)n(-c2ccc(C[C@H](NC(=O)c3c(F)cc(NS(=O)(=O)c4ccc(-n5ccnn5)cc4)cc3F)C(=O)O)cc2)c1=O [Example 58, N-[2,6-Difluoro-4-({[4-(1H-1,2,3-triazol-1-yl)phenyl]sulfonyl}amino)benzoyl]-4-(3-methyl-2,6-dioxo-3,6-dihydropyrimidin-1(2H)-yl)-L-phenylalanine]
7 | 270 nM | 660 | 0.41 nM | 21 nM | Cc1cc(-c2ccc(S(=O)(=O)Nc3cc(F)c(C(=O)N[C@@H](Cc4ccc(-n5c(=O)c6ccncc6n(C)c5=O)cc4)C(=O)O)c(F)c3)cc2)cc(C)n1 [Example 70, N-[4-({[4-(2,6-Dimethylpyridin-4-yl)phenyl]sulfonyl}amino)-2,6-difluorobenzoyl]-4-(1-methyl-2,4-dioxo-1,4-dihydropyrido[3,4-d]pyrimidin-3(2H)-yl)-L-phenylalanine]
8 | 200 nM | 180 | 1.1 nM | 15 nM | COc1cc2c(=O)n(-c3ccc(C[C@H](NC(=O)c4c(F)cc(NS(=O)(=O)c5ccc(-c6ncccn6)cc5)cc4F)C(=O)O)cc3)c(=O)n(C)c2cn1 [Example 46, N-(2,6-Difluoro-4-{[(4-pyrimidin-2-yl-phenyl)sulfonyl]amino}benzoyl)-4-(6-methoxy-1-methyl-2,4-dioxo-1,4-dihydropyrido[3,4-d]pyrimidin-3(2H)-yl)-L-phenylalanine]
9 | 52 nM | 190 | 0.27 nM | 8.8 nM | Cn1c(=O)n(-c2ccc(C[C@H](NC(=O)c3c(F)cc(NS(=O)(=O)c4ccc(-c5ccncc5)nc4)cc3F)C(=O)O)cc2)c(=O)c2ccncc21 [Example 42, N-{4-[(2,4′-Bipyridin-5-yl-sulfonyl)amino]-2,6-difluorobenzoyl}-4-(1-methyl-2,4-dioxo-1,4-dihydropyrido[3,4-d]pyrimidin-3(2H)-yl)-L-phenylalanine]
10 | 480 nM | 600 | 0.8 nM | 11 nM | Cn1ccc(=O)n(-c2ccc(C[C@H](NC(=O)c3c(F)cc(NS(=O)(=O)c4ccc(-c5cncnc5)cn4)cc3F)C(=O)O)cc2)c1=O [Example 63, N-(2,6-Difluoro-4-{[(5-pyrimidin-5-yl-pyridin-2-yl)sulfonyl]amino}benzoyl)-4-(3-methyl-2,6-dioxo-3,6-dihydropyrimidin-1(2H)-yl)-L-phenylalanine]
11 | 45 nM | 170 | 0.27 nM | 4.6 nM | Cn1c(=O)n(-c2ccc(C[C@H](NC(=O)c3c(F)cc(NS(=O)(=O)c4ccc(-n5cncn5)nc4)cc3F)C(=O)O)cc2)c(=O)c2ccncc21 [Example 55, N-[2,6-Difluoro-4-({[6-(1H-1,2,4-triazol-1-yl)pyridin-3-yl]sulfonyl}amino)benzoyl]-4-(1-methyl-2,4-dioxo-1,4-dihydropyrido[3,4-d]pyrimidin-3(2H)-yl)-L-phenylalanine]
12 | 500 nM | 520 | 0.97 nM | 21 nM | Cn1ccc(=O)n(-c2ccc(C[C@H](NC(=O)c3c(F)cc(NS(=O)(=O)c4ccc(C(=O)NC5CC5)cc4)cc3F)C(=O)O)cc2)c1=O [Example 45, N-{4-[({4-[(Cyclopropylamino)carbonyl]phenyl}sulfonyl)amino]-2,6-difluorobenzoyl}-4-(3-methyl-2,6-dioxo-3,6-dihydropyrimidin-1(2H)-yl)-L-phenylalanine]
